Results on 1 compound are retold here after patent US20060052282A1, “Diagnostic and therapeutic means for pathologies associated with alpha 2 subunit of the na, k pump” (priority 2002, published 2006).

One data set has as its system HEK293. The data set can be described thus: Ouabain treatment of transfected HEK293 cells. Type of data set: cell-based, human. As to conditions: 1 μM ouabain; pA2Oua^r-wt versus mock transfected cells. The procedure:
(§1) As all vertebrate cells present Na,K ATPase activity, the endogenous Na,K pump activity of HeLa cells was quenched to test the ion transport performance of the exogenous mutant forms. A site-directed mutagenesis was carried out to abolish the natural ouabain sensitivity of the ATP1A2 construct by mutagenizing two amino acids, Q116R and N127D, in the first extracellular loop that is part of the ouabain binding site of Na,K ATPase (15).

The next data set relates to HeLa cells. The data set can be described thus: Ouabain treatment of transfected HeLa cells (survival, MTT cell viability). In kind it is cell-based, human. As to conditions: 1 μM ouabain. The procedure: Constructs were transfected by calcium phosphate (HeLa cells) following standard procedures or by Lipofectamine (COS-7 cells), (Gibco, Invitrogene Co., Carlsbad, Calif., USA).
Cell viability was measured with the MTT (13) reduction assay after 12, 24, 36, 48 and 60 hours. Each experiment was made in triplicate and statistical analysis was done by Student's t-test (homoscedastic).
as §1
Constructs were transfected by calcium phosphate (HeLa cells) following standard procedures.
Cell viability was measured with the MTT reduction assay after 24,48 and 72 hours of 1 μM ouabain challenge. We performed two independent experiments and in each experiment, datapoints are in triplicate.

On to `C[C@@H]1O[C@@H](O[C@H]2C[C@@H](O)[C@]3(CO)[C@H]4[C@H](O)C[C@]5(C)[C@@H](C6=CC(=O)OC6)CC[C@]5(O)[C@@H]4CC[C@]3(O)C2)[C@H](O)[C@H](O)[C@H]1O` [ouabain], for which the “cell survival in ouabain-containing media compared with HeLa” value in the data set on HEK293 is “Identical results”. Besides, the “cell survival in ouabain-containing media” value in the data set with HeLa cells (HeLa cells transfected with ouabain-resistant ATP1A2 construct pA2Oua^r-wt) was “can survive and grow”. The “cell survival under ouabain treatment” value is “did not survive” in the data set with HeLa cells (HeLa cells transfected with ouabain-resistant T378N (AHC) ATP1A2 construct); “failed to survive” in the data set with HeLa cells (HeLa cells transfected with pA2Oua^r-P764 (L764P)); “failed to survive” in the data set on HeLa cells (HeLa cells transfected with pA2Oua^r-R887 (W887R)); “intermediate behaviour” in the data set with HeLa cells (simulated heterozygous state, equal amount of wild-type and T378N mutant cDNAs); “intermediate behavior” in the data set on HeLa cells (simulated heterozygous states, equal amounts of wild-type and mutant (P764 or R887) constructs). Moreover, in the data set on HeLa cells (mock transfected HeLa cells (wild-type ATP1A2, non-ouabain resistant)), the “time to death of cells in ouabain-containing media” value is 36 to 48 h.
